Legend:
Assay in all cases: relative viability (nuclei count vs DMSO), 5 days (fraction); higher = more cells survive
XMD14-99 + AZD7762 = compound: CN1CCN(CC1)C2=CC(=C(C=C2)NC3=NC(=C(S3)C(=O)C4=C(C=CC=C4Cl)Cl)N)OC [XMD14-99] + NC(=O)Nc1cc(-c2cccc(F)c2)sc1C(=O)N[C@H]1CCCNC1 [AZD7762] (partner 0.2 µM)
Procedure, shortened: (§1)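 Each reported value is a median over duplicate plates. It expresses relative viability: treated-well nuclei count divided by vehicle-well nuclei count. Lung cancer cell lines in 1536-well plates were dosed by pin tool a day after seeding, alone with one drug or with a fixed anchor-drug dose plus five library-drug doses (not always all listed) in √10 steps, and nuclei were counted after 5 days.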

XMD14-99 + Luminespib = compound: CN1CCN(CC1)C2=CC(=C(C=C2)NC3=NC(=C(S3)C(=O)C4=C(C=CC=C4Cl)Cl)N)OC [XMD14-99] + CCNC(=O)c1noc(-c2cc(C(C)C)c(O)cc2O)c1-c1ccc(CN2CCOCC2)cc1 [Luminespib] (partner 0.01 µM)
Procedure, shortened: as §1

AZD1208 + Palbociclib = compound: N[C@@H]1CCCN(c2c(/C=C3\SC(=O)NC3=O)cccc2-c2ccccc2)C1 [AZD1208] + CC(=O)c1c(C)c2cnc(Nc3ccc(N4CCNCC4)cn3)nc2n(C2CCCC2)c1=O [Palbociclib] (partner 0.5 µM)
Procedure, shortened: as §1

XMD14-99 + Palbociclib = compound: CN1CCN(CC1)C2=CC(=C(C=C2)NC3=NC(=C(S3)C(=O)C4=C(C=CC=C4Cl)Cl)N)OC [XMD14-99] + CC(=O)c1c(C)c2cnc(Nc3ccc(N4CCNCC4)cn3)nc2n(C2CCCC2)c1=O [Palbociclib] (partner 0.5 µM)
Procedure, shortened: as §1

Cell Line | relative viability (XMD14-99 + AZD7762; first compound 0.08 µM) | relative viability (XMD14-99 + AZD7762; first compound 0.8 µM) | relative viability (XMD14-99 + AZD7762; first compound 2.53 µM) | relative viability (XMD14-99 + AZD7762; first compound 8 µM) | relative viability (XMD14-99 + Luminespib; first compound 0.08 µM) | relative viability (XMD14-99 + Luminespib; first compound 0.8 µM) | relative viability (XMD14-99 + Luminespib; first compound 2.53 µM) | relative viability (XMD14-99 + Luminespib; first compound 8 µM) | relative viability (AZD1208 + Palbociclib; first compound 0.08 µM) | relative viability (AZD1208 + Palbociclib; first compound 0.253 µM) | relative viability (AZD1208 + Palbociclib; first compound 0.8 µM) | relative viability (AZD1208 + Palbociclib; first compound 2.53 µM) | relative viability (AZD1208 + Palbociclib; first compound 8 µM) | relative viability (XMD14-99 + Palbociclib; first compound 0.08 µM) | relative viability (XMD14-99 + Palbociclib; first compound 0.8 µM) | relative viability (XMD14-99 + Palbociclib; first compound 2.53 µM) | relative viability (XMD14-99 + Palbociclib; first compound 8 µM)
NCI-H1666 | 0.858 | 0.801 | 0.731 | 0.736 | 1.05 | 0.936 | 0.949 | 0.88 | 0.62 | 0.672 | 0.607 | 0.605 | 0.672 | 0.626 | 0.564 | 0.63 | 0.666
LC-2-ad | 0.869 | 0.872 | 0.889 | 0.735 | 1.04 | 0.984 | 0.824 | 0.582 | 0.591 | 0.52 | 0.528 | 0.501 | 0.5 | 0.525 | 0.446 | 0.466 | 0.487
ChaGo-K-1 | 0.844 | 0.901 | 0.826 | 0.825 | 0.565 | 0.599 | 0.609 | 0.513 | 0.905 | 0.969 | 0.874 | 0.906 | 0.884 | 0.972 | 0.93 | 0.975 | 0.873
NCI-H1975 | 0.743 | 0.745 | 0.717 | 0.569 | 0.268 | 0.238 | 0.206 | 0.209 | 0.56 | 0.686 | 0.535 | 0.591 | 0.403 | 0.597 | 0.614 | 0.618 | 0.448
NCI-H2347 | 0.814 | 0.725 | 0.673 | 0.505 | 0.337 | 0.339 | 0.368 | 0.301 | 0.457 | 0.383 | 0.45 | 0.395 | 0.382 | 0.439 | 0.43 | 0.4 | 0.416
EMC-BAC-2 | 1.15 | 1.11 | 1.08 | 0.835 | 1.19 | 1.13 | 0.99 | 1.01 | 0.518 | 0.51 | 0.504 | 0.494 | 0.432 | 0.523 | 0.516 | 0.509 | 0.481
NCI-H3122 | 0.978 | 0.893 | 0.936 | 0.555 | 0.0829 | 0.0788 | 0.132 | 0.0985 | 0.206 | 0.155 | 0.149 | 0.223 | 0.164 | 0.197 | 0.167 | 0.213 | 0.147
NCI-H358 | 0.487 | 0.593 | 0.461 | 0.455 | 0.219 | 0.262 | 0.323 | 0.281 | 0.14 | 0.149 | 0.109 | 0.14 | 0.14 | 0.0998 | 0.147 | 0.132 | 0.124
NCI-H1944 | 0.501 | 0.539 | 0.436 | 0.328 | 0.672 | 0.754 | 0.533 | 0.575 | 0.314 | 0.304 | 0.295 | 0.311 | 0.251 | 0.32 | 0.36 | 0.328 | 0.28
NCI-H2342 | 0.55 | 0.502 | 0.583 | 0.458 | 0.778 | 0.725 | 0.787 | 0.745 | 0.494 | 0.456 | 0.494 | 0.548 | 0.456 | 0.564 | 0.614 | 0.576 | 0.544
EPLC-272H | 0.165 | 0.207 | 0.254 | 0.433 | 0.658 | 0.512 | 0.417 | 0.195 | 0.363 | 0.34 | 0.326 | 0.308 | 0.373 | 0.306 | 0.299 | 0.324 | 0.347
NCI-H1915 | 0.668 | 0.676 | 0.701 | 0.629 | 0.745 | 0.72 | 0.754 | 0.61 | 0.504 | 0.435 | 0.486 | 0.474 | 0.455 | 0.555 | 0.552 | 0.516 | 0.517
NCI-H647 | 0.506 | 0.472 | 0.433 | 0.335 | 0.322 | 0.233 | 0.23 | 0.0995 | 0.322 | 0.486 | 0.324 | 0.397 | 0.304 | 0.408 | 0.459 | 0.505 | 0.364
NCI-H441 | 0.939 | 1.2 | 1.3 | 0.793 | 0.351 | 0.352 | 0.311 | 0.276 | 0.192 | 0.196 | 0.204 | 0.178 | 0.23 | 0.223 | 0.19 | 0.225 | 0.22
NCI-H23 | 0.284 | 0.312 | 0.25 | 0.188 | 0.199 | 0.247 | 0.214 | 0.202 | 0.491 | 0.478 | 0.462 | 0.477 | 0.356 | 0.519 | 0.541 | 0.529 | 0.454
NCI-H522 | 0.693 | 1.01 | 0.806 | 0.924 | 1.05 | 1.28 | 1.2 | 1.18 | 0.915 | 1.09 | 0.896 | 0.942 | 0.76 | 0.858 | 1.06 | 0.906 | 1.05
NCI-H650 | 1.05 | 1.06 | 1.16 | 0.851 | 0.733 | 0.873 | 0.79 | 0.722 | 0.309 | 0.287 | 0.314 | 0.29 | 0.289 | 0.341 | 0.337 | 0.34 | 0.38
NCI-H2170 | 0.787 | 0.928 | 0.875 | 0.702 | 0.652 | 0.59 | 0.755 | 0.372 | 0.401 | 0.455 | 0.368 | 0.357 | 0.247 | 0.426 | 0.4 | 0.425 | 0.395

Reference: the supplement of paper PMC10307832
